{"source": "patent US10426800B2", "about": "“Adipose tissue-derived stem cells for veterinary use” (CELL4VET CORPORATION, priority 2008, dated 2019)", "format_in_all_cases": "cell-based, rat", "key": {"[1]": {"system": "ADSC", "assay": "EdU labeling of ADSC in vitro", "procedure": "FIG. 9 depicts dosage effect. EdU was added to ADSC at 0, 10, 20, and 50 μM. Cellular location was identified by DAPI staining of the nucleus (which would be blue if color photos were used). EdU was detected by Alexa 594 (which would be red if color photos were used).\nFIG. 10 show the results of a time-course study. ADSC were labeled with 10 μM EdU and then split at 1 day, 4 days, 7 days, 14 days, and 21 days. […] Higher magnification (1000×) of cells at day 21 is shown in panel C.\nADSCs were grown on glass coverslips in DMEM supplemented with 10% bovine calf serum, penicillin, and streptomycin. For dosage effect, EdU was added to the culture media at 0, 10, 20 and 50 μM. Twenty-four hours later, cells were washed with PBS followed by addition of regular culture media (FIG. 9). For time-course study, ADSC were labeled with 10 μM EdU and then split at 1 day, 4 days, 7 days, 14 days and 21 days (FIG. 10).\nAfter methanol fixation, cells were washed twice with PBS and then incubated in 3% BSA in PBS followed by 0.5% Triton® X-100 in PBS for 20 minutes at room temperature. The cells were then incubated with freshly made Click-it reaction cocktail (Invitrogen) for 30 minutes at room temperature in the dark. Cells were counterstained with DAPI, mounted in standard mounting media and imaged by fluorescence microscopy."}, "[2]": {"system": "RADSC-1 cells", "assay": "Effect of FGFR inhibitor on ADSC endothelial differentiation (LDL-uptake)", "details": "EGM2 or FGF2/vitamin C-supplemented EBM2, in the presence of PD173074", "procedure": "RADSC-1 cells were grown in EGM2 or EBM2 supplemented with FGF2 and vitamin C in the presence or absence of FGFR inhibitor PD173074. The cells were then assayed for LDL-uptake. […] RADSC-1 cells were also grown in VEGF/vitamin C-supplemented EBM2 for the purpose of excluding the involvement of VEGF signaling, as PD173074 is known to have a weak inhibitory effect on VEGF receptor. Experiments were repeated 3 times."}, "[3]": {"system": "RADSC-1 cells", "assay": "LDL-uptake of ADSC grown in subtraction or addition EGM2/EBM2 media", "details": "for ADSC's LDL-uptake ability on omission of the factor from EGM2: one week in subtracted EGM2 medium; for ADSC's LDL-uptake ability in EBM2 supplemented with the factor: one week in addition medium", "text": "Each partially supplemented EGM2 is indicated by the omitted factor; for example, “-FGF” denotes EGM2 without FGF2. Experiments were repeated 3 times.\nExperiments were repeated 3 times.\nEGM2 medium is supplied by the manufacturer in the form of a basal medium (EBM2) and individual vials of supplemental factors. […] Specifically, we prepared “subtraction” EGM2 media by omitting one supplemental factor at a time."}}, "data": [{"molecule": "C#Cc1cn([C@H]2C[C@H](O)[C@@H](CO)O2)c(=O)[nH]c1=O", "note": "[EdU, 5-ethynyl-2-deoxyuridine]", "values": [{"measurement": "EdU signal in the positively labeled cells", "setting": "[1]; 10 μM EdU, 1 to 21 days, P<0.01", "result": "decreased with time"}, {"measurement": "cells EdU-labeled", "setting": "[1]; EdU 10, 20, 50 μM, regardless of concentration", "result": "approximately 50%"}]}, {"molecule": "CCN(CC)CCCCNc1ncc2cc(-c3cc(OC)cc(OC)c3)c(NC(=O)NC(C)(C)C)nc2n1", "note": "[PD173074]", "values": [{"measurement": "acquisition of LDL-uptake ability", "setting": "[2]", "result": "unable to do so"}]}, {"molecule": "C[C@]12CCC(=O)C=C1CC[C@@H]1[C@@H]2[C@@H](O)C[C@@]2(C)[C@H]1CC[C@]2(O)C(=O)CO", "note": "[hydrocortisone]", "values": [{"measurement": "ADSC's LDL-uptake ability on omission of the factor from EGM2", "setting": "[3]", "result": "essentially no effect"}]}, {"molecule": "O=C1O[C@H]([C@@H](O)CO)C(O)=C1O", "note": "[vitamin C]", "values": [{"measurement": "ADSC's LDL-uptake ability in EBM2 supplemented with the factor", "setting": "[3]", "result": "still somewhat effective, but at a much reduced level"}, {"measurement": "ADSC's LDL-uptake ability on omission of the factor from EGM2", "setting": "[3]", "result": "greatly diminished"}]}, {"molecule": "EGF: growth factor, supplemental factor of EGM2 medium", "values": [{"measurement": "ADSC's LDL-uptake ability on omission of the factor from EGM2", "setting": "[3]", "result": "essentially no effect"}]}, {"molecule": "FGF2: growth factor, supplemental factor of EGM2 medium", "values": [{"measurement": "ADSC's LDL-uptake ability in EBM2 supplemented with the factor", "setting": "[3]", "result": "still effective, albeit at a reduced level"}, {"measurement": "ADSC's LDL-uptake ability on omission of the factor from EGM2", "setting": "[3]", "result": "greatly diminished"}]}, {"molecule": "VEGF", "values": [{"measurement": "ADSC's LDL-uptake ability on omission of the factor from EGM2", "setting": "[3]", "result": "essentially no effect"}]}, {"molecule": "heparin", "values": [{"measurement": "ADSC's LDL-uptake ability on omission of the factor from EGM2", "setting": "[3]", "result": "essentially no effect"}]}]}
